Values quoted from earlier work, collected in publication PMC4939907 (Angewandte Chemie (International ed. in English), 2016).

System: cancer (e.g., HeLa) and normal (e.g., HS-5) cells
Settings: cancer (e.g., HeLa) versus normal (e.g., HS-5) cells; ref 4c, 4d, 10b

## Nap-D-Phe-D-Phe-D-pTyr
  selectivity for cancer cells: selectively inhibits cancer cells
